Laboratory results: patent US6509161B1, “Green fluorescent protein” (Gentronix Limited, priority 2000, dated 2003)

What was measured:
[1] = Fluorescence polarisation ratio of fluorophores, commercial fluorescence spectrometer with two polarising filters; type: physicochemical; details: average of 20 replicate readings, cuvette
Source text: A standard commercial fluorescence spectrometer (LS50-B, Perkin Elmer) was used to carry out conventional measurements of fluorescence, scattered light intensity and for obtaining excitation and emission spectra, with a 1 cm path length acrylic cuvette (not shown). A yellow Schott glass filter (not shown) (YG495, thickness=3 mm) was placed within the sample chamber directly in front of the window of a PMT, in order to block excitation light scattered towards the PMT by yeast cells suspended in the cuvette. For fluorescence measurements the excitation and emission wavelengths were 490 and 520 nm respectively. […] Light intensity was recorded in arbitrary units produced directly by the instrument software.
Four fluorophores were chosen, which were close spectroscopic mimics of GFP. […] Using the commercial fluorescence spectrometer (not shown), the fluorescence excitation and emission spectra for each fluorophore and for GFP were obtained. […] HPTSA needed to be used at 20 times the concentration of fluorescein to obtain the same magnitude fluorescence signal.
To measure the fluorescence polarisation ratio (P) of the fluorophores, two polarising filters (not shown) (Grade HN38 polaroid sheet, laminated in rigid acrylic, thickness=3.4 mm) were inserted within the housing 3, one either side of the sample cuvette (Which was used in place of the flow cell 2). […]

[2] = Fluorescence polarisation by flow-injection analysis on the two-PMT apparatus; type: physicochemical; details: 488 nm excitation, GFP within whole GM-FF18984 yeast cells (0.005 % MMS, 18 hours), HPTSA 1×10^−7 mol l^−1 in phosphate buffer
Method: An air cooled argon ion laser (162LGL, LG Laser Graphics GmbH, Dieburg, Germany), provided a 488 nm excitation light beam of 5 mW after filtering (TEM00>95%, beam diameter 0.67±0.05 mm). The light beam is represented by the arrow 1 in FIG. 1. The light beam 1 was plane polarised (>100:1). A four window quartz fluorescence flow cell 2 with an internal volume of 132 μl, specially constructed by Hellma Ltd, Southend-on-Sea, UK was housed in a cubic black plastic mounting block 3 (30×30×30 mm). The mounting block 3 was built at the University of Manchester Institute of Science and Technology. […]
A 488 nm interference filter 7, (3 nm half bandwidth), was used to filter the excitation light beam 1. […] One filter 8, 9 was rotated through 90° with respect to the other, such that one PMT 5 recorded the fluorescence intensity emitted polarised parallel with respect to the excitation beam (Ill), and the other PMT 6 recorded that emitted polarised perpendicular with respect to the excitation beam (Il). […] Additional filters were optimised and used in conjunction with the polarising filters to allow the laser-induced GFP fluorescence at 517 nm to be measured, whilst rejecting the high intensity laser light at 488 nm scattered towards the detector by yeast cells suspended in the stream of liquid passing through the flow cell. […]

## O=S(=O)([O-])c1cc(O)c2ccc3c(S(=O)(=O)[O-])cc(S(=O)(=O)[O-])c4ccc1c2c34.[Na+].[Na+].[Na+] [HPTSA, 8-hydroxypyrene-1,3,6-trisulfonic acid trisodium salt]
[1]
  difference between Ill and Il: less than 0.5%
[2]
  average fluorescence polarisation ratio (P): ≈ 0
